According to patent US20100093542A1, “HERBICIDE COMBINATION COMPRISING DIMETHOXYTRIAZINYL SUBSTITUTED DIFLUOROMETHANESULFONYLANILIDES” (BAYER CORPSCIENCE AG, priority 2008, published 2010):
Read-outs that look alike come from different tables or passages of the source.

Columns and labels:
Test in all cases: Post-emergence action against weeds, greenhouse pot test, visual scoring
Format in all cases: in vivo
[1] = test system: Alopecurus myosuroides (ALOMY); settings: 504 h, ALOMY, 21 DAT, read-out: % activity found
Experimental: (§1) Seeds or rhizome pieces of mono- and dicotyledonous harmful and useful plants were placed in peat pots (diameter 4 cm) filled with sandy loam and then covered with soil. The pots were kept in a greenhouse under optimum conditions. In addition, harmful plants encountered in paddy rice cultivation were cultivated in pots with a water level 2 cm above the soil surface.
(§2) About three weeks after the start of the cultivation, the test plants were treated at the 2- to 3-leaf stage. The herbicides, formulated as powder or liquid concentrates, were, either alone or in the combinations according to the invention, sprayed in various dosages on to the green parts of the plants using an application rate of 600 l of water/ha (converted). For further cultivation of the plants, the pots were then again kept under optimum conditions in a greenhouse.
(§3) The visual scoring of the herbicidal effects was carried out in intervals up to 21 days after the treatment. Scoring was carried out in percent in comparison to the untreated control plants. 0%=no herbicidal activity, 100%=complete herbicidal activity=complete kill.
(§4) The percentages from the treatments with the herbicides alone (=individual application) and with the combinations according to the invention (=mixtures) were employed to calculate interactions using the method of Colby. When the observed efficacies of the mixtures exceed the formal sum of the values of the tests with individual applications, they also exceed the expected value according to Colby, which is calculated using the formula below (cf. S. R. Colby; in Weeds 15 (1967) pp. 20 to 22):
(§5) Here: • A, B=activity of components A and B in percent at a dosage of a and b g of ai/ha (=gramm of active substance per hectare), respectively. • E=expected value in % at a dosage of a+b g of ai/ha.

Avena fatua (AVEFA) = settings: AVEFA, read-out: % activity found
Experimental: as §1, §2, §3, §4, §5

[2] = test system: Lolium multiflorum (LOLMU); settings: LOLMU, read-out: % activity found
Experimental: as §1, §2, §3, §4, §5

Setaria viridis (SETVI) = settings: 504 h, SETVI, 21 DAT, read-out: % activity found
Experimental: as §1, §2, §3, §4, §5

[3] = test system: Triticum aestivum (TRZAS); settings: 504 h, TRZAS, 21 DAT, B3-1 90 g of ai/ha, read-out: % activity found
Experimental: as §1, §2, §3, §4, §5

Zea mays (ZEAMX) = settings: ZEAMX, read-out: % activity found
Experimental: as §1, §2, §3, §4, §5

[4] = test system: Abuthilon theophrasti (ABUTH); settings: Abutilon theophrasti, 240 h, ABUTH, 10 DAT, read-out: % activity found
Experimental: as §1, §2, §3, §4, §5

[5] = test system: Amaranthus retroflexus (AMARE); settings: AMARE, read-out: % activity found; for inhibition at 12 g/ha: A-1 12 g of ai/ha
Experimental: as §1, §2, §3, §4, §5

[6] = test system: Fallopia (ex Polygonum) convolvulus (POLCO); settings: 240 h, POLCO, 10 DAT, read-out: % activity found
Experimental: as §1, §2, §3, §4, §5

[7] = test system: Matricaria inodora (MATIN); settings: Tripleurospermum inodorum, 240 h, MATIN, 10 DAT, A-1 4 g of ai/ha, read-out: % activity found
Experimental: as §1, §2, §3, §4, §5

[8] = test system: Pharbitis purpurea (PHBPU); settings: Ipomoea purpurea, PHBPU, read-out: % activity found; for inhibition at 4 g/ha: A-1 4 g of ai/ha; for inhibition at 12 g/ha: A-1 12 g of ai/ha
Experimental: as §1, §2, §3, §4, §5

Viola tricolor (VIOTR) = settings: 240 h, VIOTR, 10 DAT, A-1 12 g of ai/ha, read-out: % activity found
Experimental: as §1, §2, §3, §4, §5

Oryza sativa (ORYSA) = settings: ORYSA, B3-3 90 g of ai/ha, read-out: % activity found
Experimental: as §1, §2, §3, §4, §5

[9] = 240 h, 10 DAT, B3-1 30 g of ai/ha
[10] = 240 h, 10 DAT, B3-1 90 g of ai/ha
[11] = 504 h, 21 DAT, B3-1 30 g of ai/ha
[12] = 504 h, 21 DAT, B3-3 30 g of ai/ha
[13] = 504 h, 21 DAT, B3-3 90 g of ai/ha

CS(=O)(=O)c1ccc(C(=O)C2C(=O)CCCC2=O)c([N+](=O)[O-])c1 [B3-1, 2-[4-(methylsulfonyl)-2-nitrobenzoyl]-1,3-cyclohexanedione]
inhibition at 30 g/ha ([1]; B3-1 30 g of ai/ha): 0% | inhibition at 90 g/ha ([1]; B3-1 90 g of ai/ha): 30% | inhibition at 30 g/ha (Avena fatua (AVEFA); [9]): 0% | inhibition at 90 g/ha (Avena fatua (AVEFA); [10]): 0% | inhibition at 30 g/ha (Avena fatua (AVEFA); [11]): 0% | inhibition at 90 g/ha (Avena fatua (AVEFA); 504 h, 21 DAT, B3-1 90 g of ai/ha): 0% | inhibition at 30 g/ha [2, 9]: 30% | inhibition at 30 g/ha [2, 11]: 0% | inhibition at 30 g/ha (Setaria viridis (SETVI); B3-1 30 g of ai/ha): 0% | inhibition at 90 g/ha (Setaria viridis (SETVI); B3-1 90 g of ai/ha): 20% | inhibition at 90 g/ha [3]: 30% | inhibition at 30 g/ha (Zea mays (ZEAMX); [9]): 0% | inhibition at 90 g/ha (Zea mays (ZEAMX); [10]): 20%

COc1nc(OC)nc(C(=O)c2cccc(F)c2N(C)S(=O)(=O)C(F)F)n1 [A-1]
inhibition at 4 g/ha ([4]; A-1 4 g of ai/ha): 70% | inhibition at 12 g/ha ([4]; A-1 12 g of ai/ha): 70% | inhibition at 12 g/ha ([5]; 240 h, 10 DAT): 70% | inhibition at 4 g/ha ([5]; 504 h, 21 DAT, A-1 4 g of ai/ha): 70% | inhibition at 12 g/ha ([5]; 504 h, 21 DAT): 75% | inhibition at 4 g/ha ([6]; A-1 4 g of ai/ha): 70% | inhibition at 12 g/ha ([6]; A-1 12 g of ai/ha): 70% | inhibition at 4 g/ha [7]: 60% | inhibition at 4 g/ha ([8]; 240 h, 10 DAT): 60% | inhibition at 12 g/ha ([8]; 240 h, 10 DAT): 60% | inhibition at 4 g/ha ([8]; 504 h, 21 DAT): 60% | inhibition at 12 g/ha ([8]; 504 h, 21 DAT): 65% | inhibition at 12 g/ha (Viola tricolor (VIOTR)): 20%

CS(=O)(=O)c1ccc(C(=O)C2C(=O)CCCC2=O)c(Cl)c1COCC(F)(F)F [B3-3, 2-[2-chloro-4-(methylsulfonyl)-3-[(2,2,2-trifluoroethoxy)methyl]benzoyl]-1,3-cyclohexanedione]
inhibition at 30 g/ha ([1]; B3-3 30 g of ai/ha): 40% | inhibition at 30 g/ha (Avena fatua (AVEFA); [12]): 0% | inhibition at 90 g/ha (Avena fatua (AVEFA); [13]): 0% | inhibition at 30 g/ha [2, 12]: 20% | inhibition at 90 g/ha [2, 13]: 50% | inhibition at 90 g/ha (Oryza sativa (ORYSA); 240 h, 10 DAT): 40% | inhibition at 90 g/ha (Oryza sativa (ORYSA); 504 h, 21 DAT): 30% | inhibition at 30 g/ha (Setaria viridis (SETVI); B3-3 30 g of ai/ha): 50% | inhibition at 30 g/ha (Zea mays (ZEAMX); 240 h, 10 DAT, B3-3 30 g of ai/ha): 0% | inhibition at 90 g/ha (Zea mays (ZEAMX); 240 h, 10 DAT, B3-3 90 g of ai/ha): 0% | inhibition at 30 g/ha (Zea mays (ZEAMX); [12]): 0% | inhibition at 90 g/ha (Zea mays (ZEAMX); [13]): 0%
